Three compounds from US10968198B2, “Biaryltriazole inhibitors of macrophage migration inhibitory factor” (YALE UNIVERSITY, priority 2015, dated 2021) can be followed below.

The experiment has as its target human MIF (Homo sapiens (Human), UniProt P14174). Briefly: X-ray crystallography of complexes with human MIF. The note with it: co-crystal or soak. On the procedure:
The solution was centrifuged at 13,000×g to remove precipitated compound and used to set up hanging-drop crystallization experiments. A reservoir of 2.0 M ammonium sulfate, 0.1 M Tris pH 7, and 3% isopropanol was added to the protein solution in a 1:1 ratio and stored at 20° C. Diffraction-quality crystals with a rod morphology grew within two weeks. The crystals were cryo-protected in 25% glycerol, 2.0M ammonium sulfate, 0.1 M Tris pH 7, and 3% isopropanol. Data was collected at the Advanced Photon Source remotely on the NE-CAT 24-ID-E beam line. […] Crystals were obtained by the hanging-drop method at 20° C. A reservoir of 2.2 M ammonium sulfate, 0.1 M Tris pH 7, and 3% isopropanol mixed in a 1:1 ratio with rhMIF (16 mg/mL) was used to produce 2 μL drops. […] Crystals were cryo-protected with 25% glycerol, 2.2 M ammonium sulfate, 0.1 M Tris pH 7, and 3% isopropanol. […] HKL2000 was used to index, integrate, and scale the MIF-3a data set in the […] space group and the MIF-3b in the P212121 space group. Phases were obtained by molecular replacement with PDB file 3U18 using the CCP4 and PHASER programs. Model building was performed in COOT with iterative restrained refinement with REFMAC.

With `Oc1ccc(-n2cc(-c3ccc4cc(OCCOCCN5CCOCC5)ccc4n3)nn2)cc1` [Example 3v, 4-(4-(6-(2-(2-morpholinoethoxy)ethoxy)quinolin-2-yl)-1H-1,2,3-triazol-1-yl)phenol], the “binding site in X-ray crystal structure of complex with human MIF” value was “binding of these inhibitors in the tautomerase active site”. The same measure for `Oc1ccc(-n2cc(-c3ccc4ccccc4n3)nn2)cc1` [Example 3a, 4-(4-(quinolin-2-yl)-1H-1,2,3-triazol-1-yl)phenol]: “binding of these inhibitors in the tautomerase active site”; for `COCCOc1ccc2nc(-c3cn(-c4ccc(O)cc4)nn3)ccc2c1` [Example 3b, 4-(4-(6-(2-methoxyethoxy)quinolin-2-yl)-1H-1,2,3-triazol-1-yl)phenol]: “binding of these inhibitors in the tautomerase active site”.
